“And” between values parts separate entries of the source, which are not always exact repeats. Identical values can stand only once.
What was measured:
Assay type in all cases: in vivo
[1] = system: rats with intracerebral hemorrhage; test: Neurological deficit (C. P. McGrow stroke-index scale) in rats with intracerebral hemorrhage; conditions: n = 15
Protocol: (§1) Neuroprotective effect of 3,2′-spiro-pyrrolo-2-oxindole derivative (SI-86 compound) was studied on IUD model of moderate severity modeled under propofol anesthesia (60 mg/kg intraperitoneally (ip)) by autoblood administration into the brain internal capsule (stereotactic coordinates of the projection: H=7.0 mm, L=3.0 mm, A=1.5 mm from bregma) ([…]) (Method for reproduction of intracerebral hemorrhage in rats/O. K. Yarosh, S. V. Kyrychenko, S. P. Halimonchyk [et al.]//Circulation and hemostasis.-2005.-No. 1.-P. 77-81). The chosen model allows to reproduce clinical pattern of […] and is adequate for clinical study of potential neuroprotective agents.
(§2) As comparators the following drugs were used: mexydol (“Mexydol” UC Pharmasoft, Russia), 100 mg/kg; citicoline (“Somazina” Ferrer International, SA, Spain), 250 mg/kg; aktovegin (“Aktovegin”, Nycomed, Austria), 16 mg/kg pyracetam (“Pyracetam” Darnitsa, Ukraine), 400 mg/kg. According to the latest clinical guidelines regarding the treatment of patients with CVA approved by the Ministry of Health of Ukraine (Order No. 602 dated 3 Aug. 2012), all these drugs are allowed to be included into schemes for intensive patients therapy with CVA as neuroprotective agents. They were used at recommended doses for preclinical studies (McGrow C. P. Experimental Cerebral Infarction Effects of Pentobarbital in Mongolian Gerbils/C. P. McGrow//Arch. Neurol.-1977.-Vol. 34, No. 6.-P. 334-336). Experimental therapy of acute cerebral ischemia with SI-86 compound and comparator started 1 hour after IUD once a day for 21 days. The SI-86 derivative was investigated in conventionally effective dose of 10 mg/kg […] (iv)-dose that according to the results of our previous study provides maximum antihypoxic activity of SI-86 compound. Reference drugs were injected intraperitoneally (ip). Rats of control pathology group were injected by autoblood and as therapy 0.9% NaCI solution was administered calculated for 2 ml/kg […].
Neurological deficit in animals with acute CVA respectively in acute (4th day) and recovery (21 st day) periods was measured on C. P. McGrow stroke-index scale. The state severity was determined by amount of relevant points: to 3 points-mild, 3 to 7 points-average, above 7 points-severe degree. Pareses, paralyses of limbs, tremors, circus movement, ptoses, lateral positions, ability of rats to be maintained at the core of 15 cm diameter, rotating at the rate of 3 rpm were noted. The animals were tested daily by displaying the amount of points:
one-sided semi-ptosis—0.5 points; one-sided ptosis—1 point; tremor—0.5 points; circus movements—0.5 points; pareses of limbs (for each limb)—1 point; paralyses of limbs (for each limb)—2 points; lateral position—3 points; disability to maintain on rotating rod during 4 minutes—3 points.

[2] = system: rats with intracerebral hemorrhage; test: Conditioned response of passive avoidance (CRPA) in rats with intracerebral hemorrhage; conditions: 21st day, n = 15
Protocol: as §1, §2
(§3) Evaluation of the ability of animals to learn and memorize of aversive stimulus was examined in the test of conditioned response of passive avoidance (CRPA). The technique is based on innate rat instinct to limited shadowy space. The study in rats was conducted in two-compartment unit consisted of two sections—light and dark. An animal was arranged into light compartment, fixing latency time for entering into the dark compartment, wherein rat received current irritation and ran in the light compartment. CRPA retention was tested every other day under latency time change of rat entering into the dark compartment. Also the number of animals was noted not fully entered the dark chamber. Cerebroprotective efficiency criteria of studied compounds were also animal death term (days) and their mortality rate (in %).

[3] = system: rats with intracerebral hemorrhage; test: Lethality of rats with intracerebral hemorrhage of average severity
Protocol: The chosen model allows to reproduce clinical pattern of […] and is adequate for clinical study of potential neuroprotective agents.
As comparators the following drugs were used: mexydol (“Mexydol” UC Pharmasoft, Russia), 100 mg/kg; citicoline (“Somazina” Ferrer International, SA, Spain), 250 mg/kg; aktovegin (“Aktovegin”, Nycomed, Austria), 16 mg/kg pyracetam (“Pyracetam” Darnitsa, Ukraine), 400 mg/kg. According to the latest clinical guidelines regarding the treatment of patients with CVA approved by the Ministry of Health of Ukraine (Order No. 602 dated 3 Aug. 2012), all these drugs are allowed to be included into schemes for intensive patients therapy with CVA as neuroprotective agents. They were used at recommended doses for preclinical studies (McGrow C. P. Experimental Cerebral Infarction Effects of Pentobarbital in Mongolian Gerbils/C. P. McGrow//Arch. Neurol.-1977.-Vol. 34, No. 6.-P. 334-336). Experimental therapy of acute cerebral ischemia with SI-86 compound and comparator started 1 hour after IUD once a day for 21 days. […] Reference drugs were injected intraperitoneally (ip). Rats of control pathology group were injected by autoblood and as therapy 0.9% NaCI solution was administered calculated for 2 ml/kg iv.
Pseudo-operated rats were exposed to all interventions (anesthesia, craniotomy) excluding autoblood administration that leveled traumatic impact of experimental conditions.
as §3
Quantitative data were processed using statistical StatPlus 2009 processing. The statistical significance of differences was assessed by Fisher's angular transformation (lethality outcome), also parametric t Student criterion were used in case of normal distribution of variation series, nonparametric W White criterion—in its absence.

[4] = 12 h, SI-86 10 mg/kg iv, mexydol 100, citocoline 250, actovegin 16, pyracetam 400 mg/kg

With NC(=O)CN1CCCC1=O [pyracetam] the “neurological deficit, average point under C. P. McGrow scale” value ([1]; day 4, SI-86 10 mg/kg iv, mexydol 100, citocoline 250, actovegin 16, pyracetam 400 mg/kg ip) was 6.90 ± 0.39° points, the “neurological deficit, average point under C. P. McGrow scale” value ([1]; day 21, same doses) was 4.1 points and 4.10 ± 0.15°* points and the “Latent period for entrance into dark compartment, prior study” value ([2]; SI-86 10 mg/kg iv, mexydol 100, citocoline 250, actovegin 16, pyracetam 400 mg/kg ip) was 15.90 ± 0.51°* s. For the same molecule, the “Latent period for entrance into dark compartment, 24 hours after study” value ([2]; same doses) was 71.10 ± 2.21 s, the “Lethality, %” value [3, 4] was 4.9% and the “Lethality, abs.” value [3, 4] was 2. The “Lethality, %” value ([3]; 24 h, same doses) was 14.6%, the “Lethality, abs.” value ([3]; 24 h, same doses) was 6 and the “Lethality, %” value ([3]; 48 h, same doses) was 22%. For the same molecule, the “Lethality, abs.” value ([3]; 48 h, same doses) was 9, the “Lethality, %” value ([3]; 72 h, same doses) was 24.4% and the “Lethality, abs.” value ([3]; 72 h, same doses) was 10. The “Lethality, %” value ([3]; 96 h, same doses) was 27.5%, the “Lethality, abs.” value ([3]; 96 h, same doses) was 11 and the “reduction of mortality in rats at the end of the observation period relative to control” value ([3]; within 4 days of therapy, same doses) was “no significant impact”.

Reference: US20160297828A1, “SPIROCYCLIC COMPOUNDS CONTAINING SPIRO[INDOLYL-3,1'-PYRROLO[3,4-C]PYRROLE] CORE AND SULPHUR-CONTAINING AMINO ACID RESIDUES” (priority 2013, published 2016)
